Article PMC6155239, “Targeting PFKFB3 radiosensitizes cancer cells and suppresses homologous recombination” (Nature Communications, 2018)

Columns and labels:
FGFR3 = target: T1, FGFR3 (Homo sapiens, UniProt P22607); assay: KINOMEscan; type: binding; conditions: 2000 nM; read-out: Percent Control
T1 construct: purchased DiscoverX (Eurofins) KINOMEscan / scanEDGE, inferred from the naming style

PFKFB4 = PFKFB4 (Homo sapiens, UniProt Q16877); assay: ADP-Glo kinase activity assay, PFKFB4; type: biochemical
Description: The kinase activity of the bi-functional enzyme was quantified based on the production of ADP and F-2,6-P2 from ATP by ADP-GloTM Kinase Assay (Promega). The assay was performed in two steps; first, after the kinase reaction, an equal volume of ADP-GloTM Reagent was added to terminate the kinase reaction and deplete the remaining ATP. Second, the Kinase Detection Reagent was added to simultaneously convert ADP to ATP and allow the newly synthesized ATP to be measured using a luciferase/luciferin reaction. The light generated was measured using a luminescence counter (1450 MicroBeta TriLux). The assay was performed in white 384-well plates (OptiPlate, 6007299, PerkinElmer) by consecutive additions of a test compound solution (0.1 µL, serial diluted in DMSO from compound DMSO stock solution and dispensed by acoustic dispensing from UV-star 384-well plate 7360153, VWR), enzyme solution (5 µL) and substrate (fructose-6-phosphate (F6P) and adenosine-5′-triphosphate (ATP)) containing solution (5 µL). […] Four reference dose–response curves, one of them being the QC compound, were included and serial diluted as the test compounds. […] The inhibitory potency or IC50 values of test compounds on the kinase activity of the enzymes were calculated using a four-parameter model (model 205) in XLfit (IDBS ActivityBase XE Runner).

[1] = target: T2, ABL1(T315I)-phosphorylated (Homo sapiens, UniProt P00519, T315I); assay: KINOMEscan; type: binding; conditions: 2000 nM; read-out: Percent Control
T2 construct: purchased DiscoverX (Eurofins) KINOMEscan / scanEDGE, inferred from the naming style

FAK = target: T3, FAK (Homo sapiens, UniProt Q05397); assay: KINOMEscan; type: binding; conditions: 2000 nM; read-out: Percent Control
T3 construct: purchased DiscoverX (Eurofins) KINOMEscan / scanEDGE, inferred from the naming style

ERBB4 = target: T4, ERBB4 (Homo sapiens, UniProt Q15303); assay: KINOMEscan; type: binding; conditions: 2000 nM; read-out: Percent Control
T4 construct: purchased DiscoverX (Eurofins) KINOMEscan / scanEDGE, inferred from the naming style

DCAMKL1 = target: T5, DCAMKL1 (Homo sapiens, UniProt O15075); assay: KINOMEscan; type: binding; conditions: 2000 nM; read-out: Percent Control
T5 construct: purchased DiscoverX (Eurofins) KINOMEscan / scanEDGE, inferred from the naming style

CDK3 = target: T6, CDK3 (Homo sapiens, UniProt Q00526); assay: KINOMEscan; type: binding; conditions: 2000 nM; read-out: Percent Control
T6 construct: purchased DiscoverX (Eurofins) KINOMEscan / scanEDGE, inferred from the naming style

ABL1-phosphorylated = target: T7, ABL1-phosphorylated (Homo sapiens, UniProt P00519); assay: KINOMEscan; type: binding; conditions: 2000 nM; read-out: Percent Control
T7 construct: purchased DiscoverX (Eurofins) KINOMEscan / scanEDGE, inferred from the naming style

CHEK1 = target: T8, CHEK1 (Homo sapiens, UniProt O14757); assay: KINOMEscan; type: binding; conditions: 2000 nM; read-out: Percent Control
T8 construct: purchased DiscoverX (Eurofins) KINOMEscan / scanEDGE, inferred from the naming style

U2OS cells [2] = assay: IR-induced PFKFB3/RRM2 foci co-localization; type: cell-based; conditions: pre-treatment prior to IR 6 Gy
Description: (§1) Cells were grown on sterilized coverslips and fixed with 4% paraformaldehyde (PFA) (Santa Cruz) and 2% sucrose (Sigma Aldrich) for 15 min at room temperature. They were then permeabilized with 0.2% NP-40 (Thermo Scientific) for 10 min at room temperature followed by 30 min of blocking in blocking buffer (2 or 3% BSA, 5% glycerol, 0.1% Tween 20 (Sigma Aldrich)). Coverslips were subsequently incubated for 1, 2, or 24 h in primary antibody and 40 min in secondary antibody diluted in blocking buffer, DNA was stained with DAPI for 10 min. The coverslips were mounted with Prolonged Gold mounting medium (Invitrogen). Images were acquired with a Zeiss LSM 780 microscope using a 40× or 63× oil immersion lens and processed in ImageJ and CellProfiler.
To visualize PFKFB3, RPA32, RAD51, BRCA1, 53BP1, and RRM2 IRIF, the cells were first washed with PBS and then incubated for 5 min at room temperature with cytoskeleton (CSK) buffer containing 10 mM PIPES pH 7.0 (Sigma Aldrich), 100 mM NaCl (EMD Millipore), 300 mM sucrose (Sigma Aldrich), 3 mM MgCl2 (Sigma Aldrich), and 0.7% Triton X-100 (Sigma Aldrich). After these treatments, the cells were washed once again with PBS and then fixed in 4% PFA with 2% sucrose.

U2OS DR-GFP cells = assay: DR-GFP (HR) assay; type: cell-based; conditions: DMSO = 100% activity
Description: 5 × 10^4 U2OS (DR-GFP) cells were seeded into 12-well plates, 24 h later cells were treated with the indicated siRNAs or inhibitors and, 24 h later, transfected with 150 ng of an I-SceI vector using JetPEI or JetPRIME (Polyplus transfections). The next day, the medium was changed; 24 h after this, cells were harvested by trypsinization and washed with PBS, and the GFP signal was measured by flow cytometry on a FACS Navios (as described above). The frequency of repair in cells treated with inhibitors or transfected with the various siRNAs was calculated relative to cells treated with DMSO or transfected with control siRNA.

U2OS cells [3] = assay: IR-induced Mre11 / Nbs1 foci formation; type: cell-based; conditions: treatment prior to IR (6 Gy, 2 h recovery)
Description: as §1

U2OS cells [4] = assay: EdU labeling (DNA synthesis); type: cell-based; conditions: absence of IR
Description: U2OS cells were seeded on sterilized slides and treated with 10 or 30 μM of 757 for 6 h, or 2 mM of hydroxyurea (HU) for 3 h (DMSO was used as control vehicle). Last 40 min of treatment, 10 μM of the thymidine analogue 5-ethynyl-2′-deoxyuridine (EdU) (Sigma Aldrich, catalog no. 1T511285) was added; cells were washed with PBS and then fixed with paraformaldehyde 4% and sucrose 2%. For the detection of incorporated EdU, the Click IT reaction was performed in accordance with the supplier’s recommendations (Life Technologies/ThermoFisher Scientific). Images were acquired with a Zeiss LSM 780 microscope using a 40× oil immersion lens and processed in ImageJ and CellProfiler (version 2.2.0).

Chain of PFKFB4 (Q16877 whole entry, species assumed): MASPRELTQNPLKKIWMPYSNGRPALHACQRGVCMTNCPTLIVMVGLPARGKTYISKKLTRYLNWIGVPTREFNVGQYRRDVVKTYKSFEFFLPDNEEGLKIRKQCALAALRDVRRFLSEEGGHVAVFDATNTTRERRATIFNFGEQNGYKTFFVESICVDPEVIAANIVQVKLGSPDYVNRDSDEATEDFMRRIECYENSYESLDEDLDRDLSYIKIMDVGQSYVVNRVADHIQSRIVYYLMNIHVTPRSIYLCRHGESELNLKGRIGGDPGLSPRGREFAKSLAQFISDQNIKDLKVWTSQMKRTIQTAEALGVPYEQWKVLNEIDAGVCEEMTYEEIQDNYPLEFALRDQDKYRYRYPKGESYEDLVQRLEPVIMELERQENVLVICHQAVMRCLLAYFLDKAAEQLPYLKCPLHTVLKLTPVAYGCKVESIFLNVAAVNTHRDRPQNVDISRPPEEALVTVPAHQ
T6 sequence (Q00526 whole entry): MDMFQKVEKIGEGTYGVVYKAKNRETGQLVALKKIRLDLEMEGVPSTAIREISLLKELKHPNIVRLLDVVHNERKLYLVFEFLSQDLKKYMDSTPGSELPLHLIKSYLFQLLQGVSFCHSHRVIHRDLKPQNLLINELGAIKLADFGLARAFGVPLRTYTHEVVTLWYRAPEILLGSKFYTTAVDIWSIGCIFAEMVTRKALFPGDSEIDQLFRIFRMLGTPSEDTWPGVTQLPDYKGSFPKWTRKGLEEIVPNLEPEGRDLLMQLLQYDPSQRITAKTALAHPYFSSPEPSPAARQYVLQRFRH
T5 sequence (O15075 whole entry): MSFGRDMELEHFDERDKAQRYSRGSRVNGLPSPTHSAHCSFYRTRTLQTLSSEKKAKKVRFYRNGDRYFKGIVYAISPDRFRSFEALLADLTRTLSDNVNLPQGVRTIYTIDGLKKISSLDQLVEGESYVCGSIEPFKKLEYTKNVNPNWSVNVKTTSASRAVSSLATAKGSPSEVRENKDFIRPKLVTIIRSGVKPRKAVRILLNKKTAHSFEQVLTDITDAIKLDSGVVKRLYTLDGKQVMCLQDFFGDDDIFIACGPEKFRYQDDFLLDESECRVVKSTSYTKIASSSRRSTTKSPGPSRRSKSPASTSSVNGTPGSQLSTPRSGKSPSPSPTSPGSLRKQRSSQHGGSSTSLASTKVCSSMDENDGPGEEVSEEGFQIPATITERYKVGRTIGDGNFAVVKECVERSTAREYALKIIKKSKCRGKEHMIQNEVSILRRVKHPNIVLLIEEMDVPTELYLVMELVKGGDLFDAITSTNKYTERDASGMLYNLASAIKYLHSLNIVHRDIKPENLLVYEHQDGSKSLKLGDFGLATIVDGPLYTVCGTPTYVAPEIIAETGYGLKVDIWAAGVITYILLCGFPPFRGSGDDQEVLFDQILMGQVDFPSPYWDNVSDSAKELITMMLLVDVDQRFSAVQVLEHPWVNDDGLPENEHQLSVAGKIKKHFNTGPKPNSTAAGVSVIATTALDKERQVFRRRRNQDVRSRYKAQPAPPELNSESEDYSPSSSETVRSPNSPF
T1 sequence (P22607 23-806): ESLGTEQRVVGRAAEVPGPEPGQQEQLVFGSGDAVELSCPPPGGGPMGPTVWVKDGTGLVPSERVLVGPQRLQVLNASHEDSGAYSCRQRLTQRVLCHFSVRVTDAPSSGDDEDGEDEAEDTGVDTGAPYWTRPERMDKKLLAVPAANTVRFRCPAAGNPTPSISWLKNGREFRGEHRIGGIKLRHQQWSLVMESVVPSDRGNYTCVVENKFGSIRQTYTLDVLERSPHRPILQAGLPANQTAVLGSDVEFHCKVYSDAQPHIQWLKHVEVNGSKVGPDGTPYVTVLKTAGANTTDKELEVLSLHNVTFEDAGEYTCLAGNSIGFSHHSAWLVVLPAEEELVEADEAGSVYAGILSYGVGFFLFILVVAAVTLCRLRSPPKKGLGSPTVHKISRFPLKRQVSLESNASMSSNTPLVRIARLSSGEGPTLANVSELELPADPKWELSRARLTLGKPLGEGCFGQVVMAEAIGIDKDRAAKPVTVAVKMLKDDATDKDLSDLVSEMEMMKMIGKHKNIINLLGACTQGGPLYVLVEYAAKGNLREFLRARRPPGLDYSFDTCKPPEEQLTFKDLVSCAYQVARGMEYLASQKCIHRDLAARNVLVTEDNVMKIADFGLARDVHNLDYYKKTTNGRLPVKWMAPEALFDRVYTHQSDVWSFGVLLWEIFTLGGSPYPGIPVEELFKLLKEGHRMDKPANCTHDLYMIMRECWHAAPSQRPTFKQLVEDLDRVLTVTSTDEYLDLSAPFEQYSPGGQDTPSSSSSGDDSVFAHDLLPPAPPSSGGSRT
T3 sequence (Q05397 whole entry): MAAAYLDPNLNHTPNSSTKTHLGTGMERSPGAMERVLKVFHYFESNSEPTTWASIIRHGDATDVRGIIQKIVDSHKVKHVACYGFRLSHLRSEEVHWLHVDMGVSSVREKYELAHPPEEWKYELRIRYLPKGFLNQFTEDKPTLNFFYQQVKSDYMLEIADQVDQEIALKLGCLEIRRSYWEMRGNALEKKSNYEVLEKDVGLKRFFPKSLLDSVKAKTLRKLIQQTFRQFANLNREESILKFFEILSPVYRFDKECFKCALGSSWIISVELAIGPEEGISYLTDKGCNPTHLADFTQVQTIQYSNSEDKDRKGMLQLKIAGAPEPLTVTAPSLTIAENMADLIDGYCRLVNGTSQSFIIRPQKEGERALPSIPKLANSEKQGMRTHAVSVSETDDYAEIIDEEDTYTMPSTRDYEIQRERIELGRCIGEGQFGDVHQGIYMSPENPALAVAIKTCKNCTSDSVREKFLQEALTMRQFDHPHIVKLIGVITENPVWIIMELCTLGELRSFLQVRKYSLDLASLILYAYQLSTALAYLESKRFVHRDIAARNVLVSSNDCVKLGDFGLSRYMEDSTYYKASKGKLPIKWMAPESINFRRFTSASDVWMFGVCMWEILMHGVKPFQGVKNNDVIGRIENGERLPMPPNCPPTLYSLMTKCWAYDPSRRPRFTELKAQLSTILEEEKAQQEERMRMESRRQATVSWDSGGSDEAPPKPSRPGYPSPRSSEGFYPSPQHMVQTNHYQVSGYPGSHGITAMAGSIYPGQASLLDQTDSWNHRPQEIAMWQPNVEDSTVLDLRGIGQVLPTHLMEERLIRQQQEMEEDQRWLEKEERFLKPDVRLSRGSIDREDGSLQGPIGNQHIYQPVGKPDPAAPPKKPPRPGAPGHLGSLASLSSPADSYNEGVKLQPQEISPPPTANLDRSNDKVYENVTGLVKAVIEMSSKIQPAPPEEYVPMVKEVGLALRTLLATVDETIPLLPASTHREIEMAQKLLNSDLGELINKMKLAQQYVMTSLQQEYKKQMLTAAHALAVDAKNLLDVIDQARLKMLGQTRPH
T8 sequence (O14757 whole entry): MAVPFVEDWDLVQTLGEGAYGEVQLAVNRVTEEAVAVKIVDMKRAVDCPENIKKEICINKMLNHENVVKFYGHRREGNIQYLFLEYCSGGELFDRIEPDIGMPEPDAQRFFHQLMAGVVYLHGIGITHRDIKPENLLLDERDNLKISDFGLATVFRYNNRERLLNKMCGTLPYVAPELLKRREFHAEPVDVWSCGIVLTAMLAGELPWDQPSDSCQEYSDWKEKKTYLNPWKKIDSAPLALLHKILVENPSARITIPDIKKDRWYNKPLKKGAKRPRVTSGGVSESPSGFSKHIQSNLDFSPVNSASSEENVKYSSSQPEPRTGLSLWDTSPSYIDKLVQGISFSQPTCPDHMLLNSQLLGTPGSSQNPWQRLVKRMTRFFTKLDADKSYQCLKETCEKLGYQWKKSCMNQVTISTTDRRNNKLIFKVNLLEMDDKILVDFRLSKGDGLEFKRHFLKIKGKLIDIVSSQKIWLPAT

## O=C(O)c1ccc(NS(=O)(=O)c2cccc(-c3cc(F)ccc3O)c2)cc1O [KAN0438241, 4-{[(5′-Fluoro-2′-hydroxybiphenyl-3-yl)sulfonyl]amino}-2-hydroxybenzoic acid]
FGFR3
  remaining binding at 2 µM: 95%
PFKFB4; ADP-GLO assay
  IC50: 3.6 µM
PFKFB4; ratio of IC50 values
  selectivity window PFKFB3 versus PFKFB4: about 20 fold
[1]
  remaining binding at 2 µM: 100%
FAK
  remaining binding at 2 µM: 96%
ERBB4
  remaining binding at 2 µM: 96%
DCAMKL1
  remaining binding at 2 µM: 95%
CDK3
  remaining binding at 2 µM: 97%
ABL1-phosphorylated
  remaining binding at 2 µM: 96%
CHEK1
  remaining binding at 2 µM: 89%

## O=C(OCCO)c1ccc(NS(=O)(=O)c2cccc(-c3cc(F)ccc3O)c2)cc1O [KAN0438757, 2-Hydroxyethyl-4-{[(5′-fluoro-2′-hydroxybiphenyl-3-yl)sulfonyl]amino}-2-hydroxybenzoate]
U2OS cells [2]
  IR-induced co-localization of PFKFB3 and RRM2 (in words): disrupted
U2OS DR-GFP cells
  HR activity as compared to vehicle-treated cells: 10%
U2OS cells [3]
  IR-induced Mre11 or Nbs1 foci formation (in words): did not affect
U2OS cells [4]
  EdU intensity per cell in EdU-positive population (in words): decreased EdU intensity per cell
